Test results from PMC4601023, “Novel anticancer agent, SQAP, binds to focal adhesion kinase and modulates its activity” (Scientific Reports, 2015).
Blank lines part the entries; values can stand above or below the molecule they belong to.

Assays:
breast CSCs = tested on: breast CSCs; design: method as in PMID 25187396; conditions: in combination with radiotherapy; cited from earlier work
MFE-2 (598–736) = target: T1, MFE-2 (598–736) (Homo sapiens, UniProt P51659); test: SPR analysis, immobilized His-tagged MFE-2 (598-736); format: binding
T1 construct: For MFE-2 (598–736) DNA was amplified; made in house; host or cells: E. coli Rosetta 2 (DE3) pLysS
Source text: (§1) SPR was utilized as an independent confirmation of the kinetic parameters between SQAP and the putative binding proteins. […] The recombinant proteins were then expressed in Escherichia coli and purified to homogeneity. In addition, full length, His-tagged ADRM1 and GST-tagged HR23B (GST-HR23B) were also used. The proteins were first immobilized on a CM5 sensor chip of the SPR biosensor (Biacore 3000). For GST-HR23B analysis, a GST protein was additionally immobilized and used as a control in order to eliminate possible nonspecific binding of SQAP. SQAP samples at different concentrations were then injected over the proteins immobilized on the sensor chip. As a negative control we used sulfoquynovosylpropanediol (SQP), which lacks the fatty acid moiety of SQAP (Fig. 1). […]
(§2) The binding kinetics of SCP-2, MFE-2, ADRM1, HR23B and FAK with SQAP and SQP were analyzed on a Biacore 3000 instrument (GE Healthcare, Little Chalfont, UK). […] The buffer of purified peptides was exchanged to HBS-P (150 mM NaCl, 0.005% Surfactant P20, 10 mM HEPES-NaOH pH 7.4) using a PD 10 column (GE Healthcare, Little Chalfont, UK) and the concentrations were quantified using DC protein assay kit (Bio-Rad Laboratories, Hercules, CA, USA). […] Kinetic parameters were determined by analyzing the data using BIAevaluation 4.1 software (GE Healthcare, Little Chalfont, UK).

SCP-2 (400–547) = target: T2, SCP-2 (400–547) (Homo sapiens, UniProt P22307); test: SPR analysis, immobilized His-tagged SCP-2 (400-547); format: binding
T2 construct: DNA encoding SCP-2 (400–547) was amplified; made in house; host or cells: E. coli Rosetta 2 (DE3) pLysS
Source text: as §1, §2

ADRM1 = target: T3, ADRM1 (Homo sapiens, UniProt Q16186); test: SPR analysis, immobilized full length His-ADRM1; format: binding
T3 construct: ADRM1 and HR23B human full length proteins were purchased; His-tag; purchased ATgen (Gyeonggi-do, Korea)
Source text: as §1, §2

FAK (910–1052) = target: T4, FAK (910–1052) (Homo sapiens, UniProt Q05397); test: SPR analysis, immobilized His-tagged FAK (910-1052); format: binding
T4 construct: For FAK (910–1052) DNA was amplified; made in house; host or cells: E. coli BL21 (DE3)
Source text: as §1, §2

HR23B = target: T5, HR23B (Homo sapiens, UniProt P54727); test: SPR analysis, immobilized GST-HR23B (GST control subtracted); format: binding; conditions: no kinetic analysis
T5 construct: ADRM1 and HR23B human full length proteins were purchased; purchased Abnova (Taipei, Taiwan)
Source text: as §1, §2

[1] = tested on: FAK phosphorylation (Y397, Y925) in A549 cells; test: FAK phosphorylation level in A549, Western blotting; format: cell-based, human; conditions: A549, fibronectin 10 μg/mL, 1 h treatment
Protocol: A549 cells were incubated in a serum-free medium for 48 h in 60 mm dishes (IWAKI, Tokyo, Japan). Then 10 μM SQAP, SQMG or SQP was added and incubated for 30 min followed by addition of fibronectin 10 μg/mL (Sigma, St. Louis, MI, USA) and incubation for another 30 min. FAK phosphorylation level was analyzed by Western blotting as described in the next section.
(§3) Cells were harvested and solubilized in RIPA buffer (20 mM Tris-HCl, pH 7.5, 1% Sodium deoxycholate, 150 mM NaCl, 5 mM EDTA, 1% Triton X-100, 0.1% SDS, 0.1%, 1 mM PMSF, 1 mM vanadate and 1 μg/mL leupeptin). Protein quantification was determined using the DC protein assay kit (Bio-Rad, Hercules, CA, USA). A total of 15 μg of each protein sample were separated by SDS–PAGE gels and blotted onto polyvinylidene difluoride membranes (Merck, Kenilworth, NJ, US). After blocking for 1 h with Blocking-One (Nacalai Tesque, Kyoto, Japan), proteins were detected by incubating the membranes with the primary antibody at 4 °C overnight (anti-Y397 2:2000, anti-Y925 5:2000 and anti-FAK 0.5:2000) followed by incubation with horseradish peroxidase-conjugated secondary antibodies at room temperature for 1 h (anti-mouse 0.5:2000 and anti-rabbit 0.4:2000).

VEGF = VEGF (Homo sapiens, UniProt P15692); conditions: cited from earlier work
Tie2 gene = tested on: Tie2 gene; design: method as in PMID 18380795; conditions: cited from earlier work
[2] = tested on: FAK phosphorylation (Y397, Y925) in HUVEC cells; test: FAK phosphorylation level in HUVEC, Western blotting; format: cell-based, human; conditions: VEGF 50 ng/mL, 1 h
Protocol: HUVEC cells were incubated for 20 h in serum-free medium in 60 mm dishes. SQAP, SQMG or SQP was added and incubated for 30 min followed by addition of 50 ng/mL VEGF (RD systems, Minneapolis, MN. USA) and incubation for another 30 min. FAK phosphorylation level was analyzed by Western blotting as described in the next section.
as §3

TSP-1 gene = tested on: TSP-1 gene; design: method as in PMID 22587436; conditions: diverse cell lines including A549 and HUVEC; cited from earlier work
[3] = tested on: Akt phosphorylation at S473 in HUVEC; test: Akt phosphorylation in HUVEC, Western blotting; format: cell-based, human; conditions: treated for 21 h, 10 µM
Source text: Furthermore, we looked at FAK signaling pathway to validate our results. Paxillin binds to FAK 919–938 residues which is a sequence contained within the region where SQAP is predicted to bind. Binding between paxillin and FAK results in paxillin phosphorylation at Y118[35][36]. Thus, we examined paxillin phosphorylation. […] Additionally, we studied Akt phosphorylation at S473 on account of FAK is a known factor in control of Akt activity. We observed that Akt phosphorylation was diminished when treated with SQAP or SQMG for 21 h (see Supplementary Fig. S3).
as §3, with “0.4:2000). […]” for “0.4:2000).”

[4] = tested on: lung and colon adenocarcinomas; design: method as in PMID 9020475, PMID 21115885; conditions: transplanted in nude mice, in combination with X-irradiation; cited from earlier work
[5] = tested on: TSP-1 expression in endothelial cells; design: method as in PMID 14739779; conditions: cited from earlier work

VEGF, sequence (P15692 whole entry, species assumed): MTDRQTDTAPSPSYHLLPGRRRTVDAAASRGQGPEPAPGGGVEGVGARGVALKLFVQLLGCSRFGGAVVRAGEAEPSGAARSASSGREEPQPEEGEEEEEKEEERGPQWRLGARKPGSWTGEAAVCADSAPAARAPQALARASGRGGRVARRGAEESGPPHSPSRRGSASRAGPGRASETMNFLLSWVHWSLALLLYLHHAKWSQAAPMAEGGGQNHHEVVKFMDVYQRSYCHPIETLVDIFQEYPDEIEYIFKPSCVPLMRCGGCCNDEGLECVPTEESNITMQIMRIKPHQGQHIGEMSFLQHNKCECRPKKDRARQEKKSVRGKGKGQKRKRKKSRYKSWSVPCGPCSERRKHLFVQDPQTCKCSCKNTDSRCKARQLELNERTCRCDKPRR
T3 sequence (Q16186 whole entry): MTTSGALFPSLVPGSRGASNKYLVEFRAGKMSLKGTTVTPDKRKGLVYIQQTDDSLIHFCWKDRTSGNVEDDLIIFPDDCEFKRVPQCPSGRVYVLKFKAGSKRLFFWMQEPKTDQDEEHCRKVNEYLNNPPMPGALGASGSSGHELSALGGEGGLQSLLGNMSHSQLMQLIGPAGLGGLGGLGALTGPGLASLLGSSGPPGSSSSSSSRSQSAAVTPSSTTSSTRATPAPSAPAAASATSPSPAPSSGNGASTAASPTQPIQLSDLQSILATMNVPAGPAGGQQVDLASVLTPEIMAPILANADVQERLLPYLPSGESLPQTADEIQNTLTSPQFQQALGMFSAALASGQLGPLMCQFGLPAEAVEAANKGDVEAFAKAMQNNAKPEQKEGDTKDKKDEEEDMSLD
T5 sequence (P54727 whole entry): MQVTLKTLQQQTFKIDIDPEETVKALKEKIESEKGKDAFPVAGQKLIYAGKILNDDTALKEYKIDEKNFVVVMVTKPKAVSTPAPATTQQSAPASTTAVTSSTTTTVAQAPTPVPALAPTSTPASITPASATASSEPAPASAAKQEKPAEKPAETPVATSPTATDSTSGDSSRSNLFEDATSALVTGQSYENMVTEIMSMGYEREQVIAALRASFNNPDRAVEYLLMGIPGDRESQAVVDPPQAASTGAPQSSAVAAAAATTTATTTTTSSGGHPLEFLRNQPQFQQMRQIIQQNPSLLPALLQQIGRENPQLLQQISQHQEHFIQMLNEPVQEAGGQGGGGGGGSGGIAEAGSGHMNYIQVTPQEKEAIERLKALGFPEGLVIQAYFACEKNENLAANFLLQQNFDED
T4 sequence (Q05397 910-1052): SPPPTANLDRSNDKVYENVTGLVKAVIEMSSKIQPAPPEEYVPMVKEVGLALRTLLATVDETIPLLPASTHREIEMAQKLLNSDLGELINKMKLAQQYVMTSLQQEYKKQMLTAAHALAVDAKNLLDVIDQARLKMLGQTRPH
T1 sequence (P51659 598-736): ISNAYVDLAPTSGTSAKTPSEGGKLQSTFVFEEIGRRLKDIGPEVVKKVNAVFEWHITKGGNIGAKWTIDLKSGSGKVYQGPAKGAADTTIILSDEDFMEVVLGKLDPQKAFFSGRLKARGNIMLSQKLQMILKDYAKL
T2 sequence (P22307 400-547): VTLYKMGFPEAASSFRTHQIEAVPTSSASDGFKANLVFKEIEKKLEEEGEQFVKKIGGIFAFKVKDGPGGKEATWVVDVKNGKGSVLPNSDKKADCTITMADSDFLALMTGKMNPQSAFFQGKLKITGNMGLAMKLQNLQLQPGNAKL

Molecule: CS(=O)(=O)c1cccc(CNc2nc(Nc3ccc4c(c3)CCC(=O)N4)ncc2C(F)(F)F)c1 [PF573228]
- formation of clumps of breast CSCs (breast CSCs): block the formation of clumps

- binding to MFE-2 (SPR response) (MFE-2 (598–736)): neither bound
- binding to SCP-2 (SPR response) (SCP-2 (400–547)): neither bound
- binding to ADRM1 (SPR response) (ADRM1): neither bound
- binding to FAK (SPR response) (FAK (910–1052)): neither bound
- binding to HR23B (SPR response) (HR23B): neither bound
Molecule: O=S(=O)(O)C[C@H]1O[C@H](OCCCO)[C@H](O)[C@@H](O)[C@@H]1O [SQP, sulfoquynovosylpropanediol, reference compound]
- phosphorylation of FAK at Y397 and Y925 [1]: failed to inhibit

Molecule: sulfoquinovosyl monoacylglyceride [SQMG]
- binding to VEGF (VEGF): bind to VEGF
- Tie2 gene expression (Tie2 gene): downregulation
- phosphorylation level of FAK at Y397 and at Y925 after VEGF stimulation [2]: can inhibit
- TSP-1 gene expression (TSP-1 gene): upregulation
- Akt phosphorylation at S473 [3]: diminished
- tumor growth [4]: significantly inhibited

Molecule: O=c1cc(N2CCOCC2)oc2c(-c3ccccc3)cccc12 [LY 294002]
- TSP-1 expression levels [5]: upregulated
